This note sets out measurements from patent publication US4980349A, “Sulphonamides derived from diarylmethanes, the processes for preparing them and pharmaceutical compositions containing them” (SANOFI, priority 1986, dated 1990).

Where two headings read alike, the source gives them in different places.

Experiment [1] deals with rat hind foot kaolin-induced oedema. The experiment is described as follows: Kaolin-induced arthritis test, first experiment (decrease in inflammation, foot volume). The experiment is classed as in vivo. The conditions noted are these: 1 h before kaolin, Table IX, read-out: percentage decrease in the inflammation; for change in vivo at 25 mg/kg: 25 mg/kg oral; for change in vivo at 50 mg/kg: 50 mg/kg oral; for change in vivo at 100 mg/kg: 100 mg/kg oral. As to the method: The […] of 0.05 ml of a sterile 10% strength suspension of kaolin into the metatarsal flexor sheath of the hind foot of a rat initially induces an oedematous reaction. An inflammatory arthritis then forms.
The early oedematous reaction appears from the first hour, and reaches its maximum between the fourth hour and the sixth hour. This is the manifestation of interest. The assessment of the volume of the foot enables the action of substances on the oedematous reaction to be studied. The measurements are carried out using a Giono and Chevilard plethysmometer.
The test products are administered orally (stomach tube) one hour before the injection of the kaolin.
The results are expressed as a percentage decrease in the inflammation in the treated animals compared with a control series of animals.
The batches are of 10 animals per dose and 10 control animals.
The figures shown represent the mean of 10 animals.

The subject of experiment [2] is rat hind foot carragheenin-induced oedema. The experiment is described as follows: Carragheenin-induced oedema test. The conditions noted are these: 3 h, first experiment, Table X, read-out: percentage inhibition of the inflammation; for change in vivo at 25 mg/kg: 25 mg/kg oral; for change in vivo at 50 mg/kg: 50 mg/kg oral; for change in vivo at 100 mg/kg: 100 mg/kg oral. The experiment is classed as in vivo. How it is done: In this test, 10 rats are used per test compound of the invention. Control batches of 10 rats also receive either the comparative compound (ketoprofen) or exclusively an NaCl solution.
The compounds of the invention are administered orally (stomach tube) one hour before the injection of carragheenin.
The carragheenin is suspended at a concentration of 1% in a 0.9% isotonic sodium chloride solution. The volume injected into the rat's foot is 0.20 ml.
The volume of the foot is measured before the injection and 3 hours later. The antagonistic effect of the products towards carragheenin is reflected in the inhibition of the volume of the oedema compared with control rats. The latter receive only isotonic NaCl solution under identical conditions.

Experiment [3] relates to foreign-body (sponge) granuloma in rats. The experiment is described as follows: Experimental granuloma induced by foreign body, histological study. The class given is in vivo, Wistar rats. The conditions noted are these: 8 days, Table XI. How it is done: This test consists in studying the subacute cellular phase which is developed in the 8 days which follow the implantation of a foreign body, a sponge of non-resorbable plastic, in the dorsal subcutaneous connective tissue in rats.
The granulomas formed are removed 8 days after the implantation; a histological study is carried out after fixing the tissue and staining sections with hematein/ eosin. The observation is more especially concerned with the cell population of the primary phase of the formation of the granulation tissue: the reticulohistocytic cells, lymphocytes and more especially the macrophages.
The animals used are Wistar rats weighing 120-140 g and of the same origin, maintained under the same conditions of housing throughout the treatment (8 days).
The compounds of the invention are administered orally, in a gum suspension, in the morning in a fasted state, using an oesophageal tube.
After 8 days of treatment, the rats are sacrificed by decapitation and the granulomas removed and prepared for the purpose of histological examination.
The experiment conditions are as follows:
The animals are distributed in batches of 10;
Each test product is administered at 2 doses, of 50 and 100 mg, respectively, to 2 batches of 10 animals;
Ketoprofen is used by way of reference product at the same 2 doses and under the same conditions; and
A batch of 10 control animals receives no treatment.
In this experiment, on the one hand a histological study of the granulomas is performed by sampling on day 8 (results recorded in Table XIa), and on the other hand a study of the weight of the granulomas was performed 10 days after the implantation (results recorded in Table XIb).

The subject of experiment [4] is pain threshold of brewer's yeast inflamed rat hind foot. The experiment is described as follows: Randall and Sellitto's test (analgesic activity). Particulars: first experiment, Table XII, read-out: percentage increase in the mean pain threshold; for change in vivo at 25 mg/kg: 25 mg/kg oral; for change in vivo at 50 mg/kg: 50 mg/kg oral; for change in vivo at 100 mg/kg: 100 mg/kg oral. The class given is in vivo. As to the method: Inflammation increases the sensitivity to pain, in particular to pressure, and analgesics raise the threshold of the sensitivity.
The inflammation is obtained by injecting 0.1 ml of a 20% strength aqueous suspension of brewer's yeast under the plantar aponeurosis of one of the hind feet. […] The pain threshold is assessed in terms of the force necessary and sufficient to initiate a characteristic reaction of withdrawing the foot.
The sensitivity to pain of the inflamed foot reaches a plateau 4 hours after the injection of the brewer's yeast, and then remains stable until the 6th hour. The pain threshold of the inflamed foot in control rats weighing 140 g is reached for pressures of 50 to 60 g, whereas it is around 160 g for the intact foot.
The action of the substance administered orally to series of 10 rats is expressed in terms of the percentage increase in the mean pain threshold, compared with that measured in the rats of a control series of 10 animals which have not received a compound of the invention.
The test products are administered orally (stomach tube) one hour before the injection of brewer's yeast.
The comparative compound used is ketoprofen.

For experiment [5], the system named is biosynthesis of leukotrienes B4 (LTB4), human polymorphonuclear leukocytes. The experiment in a line: Biosynthesis of LTB4, isomers and oxidized metabolites in human polymorphonuclear leukocytes. Particulars: Leukocyte, first experiment. The class given is cell-based. As to the method:
Polymorphonuclear leukocytes are isolated from human blood and used during the 6 hours following the withdrawal. The viability of the cells is checked by trypan blue exclusion.
5×10^6 cells are incubated for 10 minutes at 37° C. in the presence of the test product dissolved in DMSO, and are stimulated with ionophore A 23187 (Galbiochem, 10 μM) in PBS buffer at pH 7.4, Ca^2+ and Mg^2+ =1 μM.
100 ng of prostaglandin B2 (PGB2), dissolved in methanol, are added at the end of the reaction to act as an internal standard.
On centrifugation, the culture supernatant is withdrawn. The latter is retrieved under argon and stored at -80° C. until analysed by HPLC.
This analysis is carried out by injecting 250 μl onto a 5 μm ODS ultrasphere column (Beckmann), with a gradient of acetonitrile (20-80%) in water, at pH 7.4.
The amounts of the different products which absorb at 269 nm, i.e. leukotrienes B4 (LTB4), isomers of LTB4 and oxidized metabolites of LTB4, are estimated by comparison with the internal standard.
The test product is used at a concentration of 40 μM.
They are expressed either as a percentage inhibition, or as a percentage increase in the production of LTB4, isomers of LTB4 and oxidized metabolites of LTB4 (designated by +).
The experimental model is the same as that described in Section 2.1. Other products are tested by comparison with the compound of the invention no. 1574, used as a control.

[6] abbreviates: read-out: Isomers of LTB4: percentage inhibition (+ : percentage increase in the production).
Setting [7] is: read-out: LTB4: percentage inhibition (+ : percentage increase in the production).
Where [8] appears, read: read-out: Oxidized metabolites of LTB4: percentage inhibition (+ : percentage increase in the production).

For the compound `O=C(c1ccc(Cl)cc1)c1ccccc1S(=O)(=O)NCCCN1CCOCC1` [Compound 1410], in experiment [1], the change in vivo at 25 mg/kg is -18%, the change in vivo at 50 mg/kg is -32% and the change in vivo at 100 mg/kg was -57%. In experiment [2], the change in vivo at 25 mg/kg is -15%, the change in vivo at 50 mg/kg is -25% and the change in vivo at 100 mg/kg was -48%. Moreover, in experiment [3] (both doses (50 and 100 mg/kg) oral), the “histological study of the granuloma” value is “inflammatory reaction is attenuated”. For the same compound, in experiment [4], the change in vivo at 25 mg/kg is 19%, the change in vivo at 50 mg/kg was found to be 37% and the change in vivo at 100 mg/kg was determined as 58%.
For the compound `O=C(O)CCCCCNS(=O)(=O)c1ccc(Cl)cc1C(=O)c1ccccc1Cl` [Compound 1570], the change in vivo at 25 mg/kg in experiment [1] was -10%; in experiment [2] it was -20%; in experiment [4], 15%. Also, the change in vivo at 50 mg/kg in experiment [1] is -25%; in experiment [2], -29%; in experiment [4] it was 25%. For the same compound, the change in vivo at 100 mg/kg was -52% in experiment [1], -40% in experiment [2] and 53% in experiment [4]. In addition, the results for the “histological study of the granuloma” value in experiment [3] (50 mg/kg oral) and in experiment [3] (100 mg/kg oral) were “anti-inflammatory activity is exhibited” and “distinct”, respectively.
On to `O=C(O)CCCCCCCCCCCNS(=O)(=O)c1ccccc1C(=O)c1ccccc1` [Compound 1683], for which the figures for the change in vivo at 25 mg/kg in experiment [1], in experiment [2] and in experiment [4] were -25%, -25% and 15%, respectively. Further, the change in vivo at 50 mg/kg in experiment [1] was -30%; in experiment [2], -30%; in experiment [4], 20%. Further, the change in vivo at 100 mg/kg in experiment [1] was -40%; in experiment [2] it was -35%; in experiment [4], 30%. Besides, the inhibition at 40 µM stood at 15% in experiment [5] (setting [6]), 15% in experiment [5] (setting [7]) and 30% in experiment [5] (setting [8]).
With `O=C(O)CCCCCCCCCCNS(=O)(=O)c1cccc(C(=O)c2ccccc2)c1` [Compound 1684], the results for the change in vivo at 25 mg/kg in experiment [1], in experiment [2] and in experiment [4] were -28%, -30% and 35%, respectively. Besides, the change in vivo at 50 mg/kg in experiment [1] was -42%; in experiment [2], -45%; in experiment [4], 45%. In addition, the change in vivo at 100 mg/kg was -45% in experiment [1], -55% in experiment [2] and 50% in experiment [4]. The inhibition at 40 µM in experiment [5] (setting [6]) amounted to 35%; in experiment [5] (setting [7]), 20%; in experiment [5] (setting [8]), 60%.
With `O=C(O)CCCCCCCCCCNS(=O)(=O)c1ccc(C(=O)c2ccccc2)cc1` [Compound 1686], the change in vivo at 25 mg/kg is -50% in experiment [1], -50% in experiment [2] and 35% in experiment [4]. In addition, the change in vivo at 50 mg/kg in experiment [1] is -50%; in experiment [2], -50%; in experiment [4] it was 50%. Further, the change in vivo at 100 mg/kg in experiment [1] is -50%; in experiment [2], -55%; in experiment [4] it was 50%. Also, the figures for the inhibition at 40 µM in experiment [5] (setting [6]), in experiment [5] (setting [7]) and in experiment [5] (setting [8]) were 5%, 0% and 25%, respectively.
`O=C(O)CCCCCCCCCCCNS(=O)(=O)c1ccc(C(=O)c2ccccc2)cc1` [Compound 1687]: the change in vivo at 25 mg/kg in experiment [1] was -23%; in experiment [2] it was -25%; in experiment [4], 25%. Moreover, the change in vivo at 50 mg/kg was -28% in experiment [1], -30% in experiment [2] and 35% in experiment [4]. Further, the change in vivo at 100 mg/kg in experiment [1] was -50%; in experiment [2], -48%; in experiment [4], 50%. For the same compound, the inhibition at 40 µM was 0% in experiment [5] (setting [6]), 16% in experiment [5] (setting [7]) and -30% in experiment [5] (setting [8]).
As to `O=C(O)CCCCCCCCCCNS(=O)(=O)c1cccc(C(=O)c2cc(S(=O)(=O)NCCCCCCCCCCC(=O)O)ccc2Cl)c1` [Compound 1688], the change in vivo at 25 mg/kg in experiment [1] was -25%; in experiment [2], -25%; in experiment [4] it was 25%. Further, the change in vivo at 50 mg/kg in experiment [1] is -28%; in experiment [2], -32%; in experiment [4], 32%. The change in vivo at 100 mg/kg in experiment [1] was -48%; in experiment [2] it was -50%; in experiment [4], 50%. The inhibition at 40 µM in experiment [5] (setting [6]) is -35%; in experiment [5] (setting [7]) it was 35%; in experiment [5] (setting [8]), 20%.

A word on the inhibition: it is the drop in the measured response relative to a control, in per cent.
